Values of other authors in patent US20100247645A1 (priority 2007, published 2010).

Details: class 3 = high solubility, low permeability

BCS (biopharmaceutical classification system) class: class 3
SMILES: COCCCOc1cc(C[C@@H](C[C@H](N)[C@@H](O)C[C@H](C(=O)NCC(C)(C)C(N)=O)C(C)C)C(C)C)ccc1OC [Aliskiren, 2(S),4(S),5(S),7(S)—N-(3-amino-2,2-dimethyl-3-oxopropyl)-2,7-di(1-methylethyl)-4-hydroxy-5-amino-8-[4-methoxy-3-(3-methoxy-propoxy)phenyl]-octanamide]
